From the NIST ThermoML archive (doi:10.1021/acs.jced.6b00526)
Numbers after ± are expanded uncertainties.

Experiment: refractive index (Na D-line) (dimensionless); xn = mol fraction of the nth substance listed
Details: 100 kPa, Liquid, Standard Abbe refractometry

OCCO [1,2-ethanediol] + O
refractive index
Details	x2 = 0	x2 = 0.1593	x2 = 0.2669	x2 = 0.3496	x2 = 0.4449	x2 = 0.5563	x2 = 0.6518	x2 = 0.7482	x2 = 0.8444
288.15 K	1.432 ± 0.029	1.4278 ± 0.029	1.4239 ± 0.029	1.4202 ± 0.028	1.4152 ± 0.028	1.408 ± 0.028	1.3996 ± 0.028	1.3881 ± 0.028	1.3724 ± 0.027
293.15 K	1.4306 ± 0.029	1.4263 ± 0.029	1.4225 ± 0.029	1.4188 ± 0.028	1.4138 ± 0.028	1.4067 ± 0.028	1.3984 ± 0.028	1.387 ± 0.028	1.3714 ± 0.027
298.15 K	1.4294 ± 0.029	1.4251 ± 0.029	1.4212 ± 0.028	1.4176 ± 0.028	1.4126 ± 0.028	1.4055 ± 0.028	1.3973 ± 0.028	1.386 ± 0.028	1.3705 ± 0.027
303.15 K	1.4282 ± 0.029	1.4239 ± 0.029	1.42 ± 0.028	1.4163 ± 0.028	1.4114 ± 0.028	1.4043 ± 0.028	1.3961 ± 0.028	1.3849 ± 0.028	1.3696 ± 0.027
308.15 K	1.4269 ± 0.029	1.4225 ± 0.029	1.4187 ± 0.028	1.415 ± 0.028	1.4102 ± 0.028	1.4031 ± 0.028	1.3949 ± 0.028	1.3838 ± 0.028	1.3687 ± 0.027
313.15 K	1.4257 ± 0.029	1.4213 ± 0.028	1.4174 ± 0.028	1.4138 ± 0.028	1.409 ± 0.028	1.4019 ± 0.028	1.3938 ± 0.028	1.3827 ± 0.028	1.3677 ± 0.027
318.15 K	1.4244 ± 0.029	1.42 ± 0.028	1.4161 ± 0.028	1.4125 ± 0.028	1.4077 ± 0.028	1.4006 ± 0.028	1.3926 ± 0.028	1.3816 ± 0.028	1.3668 ± 0.027

OCCCCO [1,4-butanediol] + O
refractive index
Details	x2 = 0	x2 = 0.152	x2 = 0.2513	x2 = 0.3534	x2 = 0.4482	x2 = 0.5515	x2 = 0.6527	x2 = 0.7501	x2 = 0.8492	x2 = 0.9488
288.15 K	1.447 ± 0.029	1.4441 ± 0.029	1.4413 ± 0.029	1.4376 ± 0.029	1.4332 ± 0.029	1.4277 ± 0.029	1.4203 ± 0.028	1.4097 ± 0.028	1.3913 ± 0.028	1.3596 ± 0.027
293.15 K	1.4455 ± 0.029	1.4425 ± 0.029	1.4397 ± 0.029	1.436 ± 0.029	1.4317 ± 0.029	1.4262 ± 0.029	1.4188 ± 0.028	1.4082 ± 0.028	1.39 ± 0.028	1.3586 ± 0.027
298.15 K	1.4441 ± 0.029	1.4411 ± 0.029	1.4383 ± 0.029	1.4346 ± 0.029	1.4304 ± 0.029	1.4247 ± 0.029	1.4174 ± 0.028	1.4069 ± 0.028	1.3888 ± 0.028	1.3577 ± 0.027
303.15 K	1.4426 ± 0.029	1.4395 ± 0.029	1.4368 ± 0.029	1.4331 ± 0.029	1.4289 ± 0.029	1.4232 ± 0.029	1.416 ± 0.028	1.4056 ± 0.028	1.3876 ± 0.028	1.3569 ± 0.027
308.15 K	1.4412 ± 0.029	1.4381 ± 0.029	1.4353 ± 0.029	1.4316 ± 0.029	1.4274 ± 0.029	1.4219 ± 0.028	1.4147 ± 0.028	1.4044 ± 0.028	1.3865 ± 0.028	1.356 ± 0.027
313.15 K	1.4398 ± 0.029	1.4367 ± 0.029	1.4339 ± 0.029	1.4302 ± 0.029	1.426 ± 0.029	1.4205 ± 0.028	1.4134 ± 0.028	1.4031 ± 0.028	1.3853 ± 0.028	1.3552 ± 0.027
318.15 K	1.4384 ± 0.029	1.4352 ± 0.029	1.4324 ± 0.029	1.4288 ± 0.029	1.4246 ± 0.029	1.4191 ± 0.028	1.412 ± 0.028	1.4018 ± 0.028	1.3842 ± 0.028	1.3543 ± 0.027

OCCCCCO [1,5-pentanediol] + O
refractive index
Details	x2 = 0	x2 = 0.1235	x2 = 0.2586	x2 = 0.3455	x2 = 0.4864	x2 = 0.5755	x2 = 0.6777	x2 = 0.7611	x2 = 0.8474	x2 = 0.9205
288.15 K	1.4503 ± 0.029	1.4493 ± 0.029	1.4477 ± 0.029	1.4463 ± 0.029	1.4425 ± 0.029	1.4401 ± 0.029	1.4342 ± 0.029	1.4253 ± 0.029	1.4085 ± 0.028	1.3851 ± 0.028
293.15 K	1.449 ± 0.029	1.4477 ± 0.029	1.4462 ± 0.029	1.4447 ± 0.029	1.4411 ± 0.029	1.4386 ± 0.029	1.4328 ± 0.029	1.4239 ± 0.029	1.4073 ± 0.028	1.384 ± 0.028
298.15 K	1.4478 ± 0.029	1.4464 ± 0.029	1.4447 ± 0.029	1.4432 ± 0.029	1.4396 ± 0.029	1.4371 ± 0.029	1.4315 ± 0.029	1.4225 ± 0.029	1.406 ± 0.028	1.3828 ± 0.028
303.15 K	1.4466 ± 0.029	1.4448 ± 0.029	1.4431 ± 0.029	1.4416 ± 0.029	1.438 ± 0.029	1.4355 ± 0.029	1.43 ± 0.029	1.4211 ± 0.028	1.4048 ± 0.028	1.3816 ± 0.028
308.15 K	1.4454 ± 0.029	1.4434 ± 0.029	1.4416 ± 0.029	1.4402 ± 0.029	1.4367 ± 0.029	1.4341 ± 0.029	1.4286 ± 0.029	1.4197 ± 0.028	1.4035 ± 0.028	1.3804 ± 0.028
313.15 K	1.4441 ± 0.029	1.4419 ± 0.029	1.44 ± 0.029	1.4386 ± 0.029	1.4352 ± 0.029	1.4326 ± 0.029	1.4271 ± 0.029	1.4183 ± 0.028	1.4022 ± 0.028	1.3793 ± 0.028
318.15 K	1.443 ± 0.029	1.4408 ± 0.029	1.4386 ± 0.029	1.4373 ± 0.029	1.434 ± 0.029	1.4313 ± 0.029	1.4259 ± 0.029	1.4171 ± 0.028	1.401 ± 0.028	1.3781 ± 0.028

OCCCO [propan-1,3-diol] + O
refractive index
Details	x2 = 0	x2 = 0.1737	x2 = 0.2519	x2 = 0.3669	x2 = 0.4553	x2 = 0.5501	x2 = 0.6509	x2 = 0.7532	x2 = 0.8508
288.15 K	1.4407 ± 0.029	1.4361 ± 0.029	1.4335 ± 0.029	1.429 ± 0.029	1.4248 ± 0.029	1.419 ± 0.028	1.4107 ± 0.028	1.3985 ± 0.028	1.381 ± 0.028
293.15 K	1.4393 ± 0.029	1.4347 ± 0.029	1.4321 ± 0.029	1.4276 ± 0.029	1.4234 ± 0.029	1.4177 ± 0.028	1.4095 ± 0.028	1.3973 ± 0.028	1.38 ± 0.028
298.15 K	1.438 ± 0.029	1.4334 ± 0.029	1.4308 ± 0.029	1.4263 ± 0.029	1.4221 ± 0.028	1.4165 ± 0.028	1.4083 ± 0.028	1.3962 ± 0.028	1.379 ± 0.028
303.15 K	1.4367 ± 0.029	1.432 ± 0.029	1.4295 ± 0.029	1.425 ± 0.029	1.4208 ± 0.028	1.4152 ± 0.028	1.4071 ± 0.028	1.3951 ± 0.028	1.378 ± 0.028
308.15 K	1.4353 ± 0.029	1.4306 ± 0.029	1.4281 ± 0.029	1.4236 ± 0.029	1.4194 ± 0.028	1.4139 ± 0.028	1.4059 ± 0.028	1.3939 ± 0.028	1.3771 ± 0.028
313.15 K	1.434 ± 0.029	1.4294 ± 0.029	1.4268 ± 0.029	1.4223 ± 0.028	1.4181 ± 0.028	1.4127 ± 0.028	1.4047 ± 0.028	1.3929 ± 0.028	1.3761 ± 0.028
318.15 K	1.4327 ± 0.029	1.4281 ± 0.029	1.4255 ± 0.029	1.421 ± 0.028	1.4169 ± 0.028	1.4115 ± 0.028	1.4036 ± 0.028	1.3918 ± 0.028	1.3752 ± 0.028
